Results as given in ChEMBL document CHEMBL1146499, “New compounds from an extract of Vernonia colorata leaves with anti-inflammatory activity” (2004).
The source made the active and inactive calls. No cut-off for these calls is given here.

Assays:
[1] = test system: Rattus norvegicus; experiment: Antiinflammatory activity against carrageenan-induced paw edema in Wistar rat at 1.7 mg/kg, po; assay type: functional, organism-based; set-up: dose 1.7 mg/kg
[2] = test system: Rattus norvegicus; experiment: Antiinflammatory activity against carrageenan-induced paw edema in Wistar rat at 1.08 mg/kg, po; assay type: functional, organism-based; set-up: dose 1.08 mg/kg
[3] = test system: Rattus norvegicus; experiment: Antiinflammatory activity against carrageenan-induced paw edema in Wistar rat at 1.3 mg/kg, po; assay type: functional, organism-based; set-up: dose 1.3 mg/kg
[4] = test system: Rattus norvegicus; experiment: Antiinflammatory activity against carrageenan-induced paw edema in Wistar rat at 5 mg/kg, po; assay type: functional
[5] = test system: Rattus norvegicus; experiment: Antiinflammatory activity against carrageenan-induced paw edema in Wistar rat at 1.8 mg/kg, po; assay type: functional, organism-based; set-up: dose 1.8 mg/kg

CC(=O)OC[C@H]1O[C@@H](O[C@H]2CC[C@]3(C)C4=C(CCC3C2)C2=CCC[C@@]2(C2[C@H]3O[C@]5(C)OC[C@H](C)C5(O)[C@H]3O[C@@H]2O)CC4)[C@H](O[C@@H]2O[C@H](CO)[C@H](O)[C@H](O)[C@H]2O)[C@@H](O)[C@@H]1O (stereo not given in full)
Activity [1]: inactive

C[C@H]1CO[C@@]2(C)O[C@@H]3C([C@@]45CCC=C4C4=C(CC5)[C@@]5(C)CC[C@H](O[C@@H]6O[C@H](CO)[C@@H](O)[C@H](O)[C@H]6O[C@@H]6O[C@H](CO)[C@H](O)[C@H](O)[C@H]6O)CC5CC4)[C@@H](O)O[C@@H]3C12O (stereo not given in full)
Activity [2]: inactive

C[C@@]12CCC[C@H]1C1=C(CC2)[C@@]2(C)CC[C@H](O[C@@H]3O[C@H](CO[C@@H]4O[C@H](CO)[C@@H](O)[C@H](O)[C@H]4O)[C@@H](O)[C@H](O)[C@H]3O)CC2CC1 (stereo not given in full)
Activity [3]: inactive

COc1ccc2c(c1)c(CC(=O)O)c(C)n2C(=O)c1ccc(Cl)cc1 [INDOMETHACIN]
inhibition in vivo at 5 mg/kg [4]: 85%

C[C@@]12CCC[C@H]1C1=C(CC2)[C@@]2(C)CC[C@H](O[C@@H]3O[C@H](CO[C@@H]4O[C@H](CO)[C@@H](O)[C@H](O)[C@H]4O)[C@@H](O)[C@H](O)[C@H]3O[C@@H]3O[C@H](CO)[C@H](O)[C@H](O)[C@H]3O)CC2CC1 (stereo not given in full)
Activity [5]: inactive
